Assay results from paper PMC10838953.

Legend:
[1] = molecular target: NEK7 (Homo sapiens, UniProt Q8TDX7); test: biochemical; conditions: read-out: %Ctrl @ 2000nM
[2] = molecular target: ABL1(Y253F)-phosphorylated (Homo sapiens, UniProt P00519, Y253F); test: biochemical; conditions: read-out: %Ctrl @ 2000nM
[3] = molecular target: CSNK1G1 (Homo sapiens, UniProt Q9HCP0); test: biochemical; conditions: read-out: %Ctrl @ 2000nM
[4] = molecular target: MRCKB (Homo sapiens, UniProt Q9Y5S2); test: biochemical; conditions: read-out: %Ctrl @ 2000nM
Chain of MRCKB (Q9Y5S2 whole entry): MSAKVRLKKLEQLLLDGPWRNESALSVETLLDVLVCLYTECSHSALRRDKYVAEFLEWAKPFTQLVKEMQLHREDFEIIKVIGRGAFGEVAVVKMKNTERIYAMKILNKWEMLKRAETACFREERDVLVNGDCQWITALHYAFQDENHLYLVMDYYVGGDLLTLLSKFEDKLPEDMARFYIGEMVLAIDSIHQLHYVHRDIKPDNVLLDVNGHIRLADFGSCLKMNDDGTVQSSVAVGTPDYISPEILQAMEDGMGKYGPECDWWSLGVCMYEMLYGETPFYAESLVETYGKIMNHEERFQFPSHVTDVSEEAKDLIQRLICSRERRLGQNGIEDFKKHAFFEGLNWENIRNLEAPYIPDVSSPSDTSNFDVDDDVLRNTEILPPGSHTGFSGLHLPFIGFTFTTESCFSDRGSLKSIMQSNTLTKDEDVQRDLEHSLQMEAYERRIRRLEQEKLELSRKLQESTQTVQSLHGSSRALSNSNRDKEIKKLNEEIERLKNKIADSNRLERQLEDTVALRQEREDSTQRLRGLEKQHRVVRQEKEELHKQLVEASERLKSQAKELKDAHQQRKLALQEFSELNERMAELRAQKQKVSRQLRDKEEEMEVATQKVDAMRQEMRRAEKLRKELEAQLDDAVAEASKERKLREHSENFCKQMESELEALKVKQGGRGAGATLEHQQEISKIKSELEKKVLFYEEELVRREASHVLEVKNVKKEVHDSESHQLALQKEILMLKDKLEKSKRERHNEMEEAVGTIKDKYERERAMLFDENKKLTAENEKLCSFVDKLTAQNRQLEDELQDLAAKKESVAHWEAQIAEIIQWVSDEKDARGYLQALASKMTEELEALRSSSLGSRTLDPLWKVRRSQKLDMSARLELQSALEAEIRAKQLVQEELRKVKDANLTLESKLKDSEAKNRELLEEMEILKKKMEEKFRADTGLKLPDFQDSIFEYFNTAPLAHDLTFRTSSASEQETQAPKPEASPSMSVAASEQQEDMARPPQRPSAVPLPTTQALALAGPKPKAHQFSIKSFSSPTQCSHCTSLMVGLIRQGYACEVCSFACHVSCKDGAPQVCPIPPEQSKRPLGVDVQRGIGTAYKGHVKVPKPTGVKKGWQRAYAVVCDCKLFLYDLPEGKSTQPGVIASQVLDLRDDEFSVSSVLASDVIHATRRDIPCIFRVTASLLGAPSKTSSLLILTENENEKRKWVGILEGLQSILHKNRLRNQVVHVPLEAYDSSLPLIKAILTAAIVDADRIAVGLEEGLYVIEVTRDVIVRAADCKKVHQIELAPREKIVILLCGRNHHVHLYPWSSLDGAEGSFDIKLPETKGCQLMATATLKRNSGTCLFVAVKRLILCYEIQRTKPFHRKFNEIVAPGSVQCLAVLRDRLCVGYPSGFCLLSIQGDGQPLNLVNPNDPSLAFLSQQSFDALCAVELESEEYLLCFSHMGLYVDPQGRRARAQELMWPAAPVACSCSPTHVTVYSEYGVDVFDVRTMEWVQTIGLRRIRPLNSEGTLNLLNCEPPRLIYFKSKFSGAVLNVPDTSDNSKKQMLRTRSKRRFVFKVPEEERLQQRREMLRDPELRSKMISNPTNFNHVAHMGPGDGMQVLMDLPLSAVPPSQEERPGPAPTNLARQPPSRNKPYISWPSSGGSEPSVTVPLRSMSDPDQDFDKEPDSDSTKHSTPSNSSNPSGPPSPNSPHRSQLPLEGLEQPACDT

[5] = molecular target: CAMK1B (Homo sapiens, UniProt Q6P2M8); test: biochemical; conditions: read-out: %Ctrl @ 2000nM
[6] = molecular target: CSNK1A1L (Homo sapiens, UniProt Q8N752); test: biochemical; conditions: read-out: %Ctrl @ 2000nM
[7] = molecular target: PIM1 (Homo sapiens, UniProt P11309); test: biochemical; conditions: read-out: %Ctrl @ 2000nM
[8] = molecular target: TRKA (Homo sapiens, UniProt P04629); test: biochemical; conditions: read-out: %Ctrl @ 2000nM
Chain of TRKA (P04629 33-796): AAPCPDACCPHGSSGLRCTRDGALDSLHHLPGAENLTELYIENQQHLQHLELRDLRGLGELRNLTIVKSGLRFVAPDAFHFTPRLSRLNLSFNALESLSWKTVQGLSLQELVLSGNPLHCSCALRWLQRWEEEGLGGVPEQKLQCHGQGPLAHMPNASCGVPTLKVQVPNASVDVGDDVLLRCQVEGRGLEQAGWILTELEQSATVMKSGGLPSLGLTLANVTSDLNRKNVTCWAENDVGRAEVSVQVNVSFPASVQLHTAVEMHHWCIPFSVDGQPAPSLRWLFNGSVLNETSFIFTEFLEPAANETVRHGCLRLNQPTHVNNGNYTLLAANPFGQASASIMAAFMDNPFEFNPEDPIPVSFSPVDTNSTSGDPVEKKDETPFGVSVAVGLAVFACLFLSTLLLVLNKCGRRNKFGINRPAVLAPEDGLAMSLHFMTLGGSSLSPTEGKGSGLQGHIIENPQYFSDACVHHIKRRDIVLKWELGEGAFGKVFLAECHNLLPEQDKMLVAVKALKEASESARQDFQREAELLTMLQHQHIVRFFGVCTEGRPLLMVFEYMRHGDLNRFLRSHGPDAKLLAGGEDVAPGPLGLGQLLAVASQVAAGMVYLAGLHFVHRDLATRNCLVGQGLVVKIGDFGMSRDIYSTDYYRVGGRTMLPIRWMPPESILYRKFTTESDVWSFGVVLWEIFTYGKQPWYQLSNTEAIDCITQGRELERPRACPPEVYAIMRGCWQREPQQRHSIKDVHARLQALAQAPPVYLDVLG

[9] = molecular target: CSNK1D (Homo sapiens, UniProt P48730); test: biochemical; conditions: read-out: %Ctrl @ 2000nM
[10] = molecular target: CDK7 (Homo sapiens, UniProt P50613); test: biochemical; conditions: read-out: %Ctrl @ 2000nM
[11] = molecular target: PIK3C2B (Homo sapiens, UniProt O00750); test: biochemical; conditions: read-out: %Ctrl @ 2000nM
[12] = molecular target: GSK3A (Homo sapiens, UniProt P49840); test: biochemical; conditions: read-out: %Ctrl @ 2000nM
[13] = molecular target: RIPK1 (Homo sapiens, UniProt Q13546); test: biochemical; conditions: read-out: %Ctrl @ 2000nM
[14] = molecular target: HIPK4 (Homo sapiens, UniProt Q8NE63); test: biochemical; conditions: read-out: %Ctrl @ 2000nM
[15] = molecular target: YANK1 (Homo sapiens, UniProt Q8WU08); test: biochemical; conditions: read-out: %Ctrl @ 2000nM
[16] = molecular target: FRK (Homo sapiens, UniProt P42685); test: biochemical; conditions: read-out: %Ctrl @ 2000nM
[17] = molecular target: MYLK2 (Homo sapiens, UniProt Q9H1R3); test: biochemical; conditions: read-out: %Ctrl @ 2000nM
[18] = molecular target: PIK3CA(H1047L) (Homo sapiens, UniProt P42336, H1047L); test: biochemical; conditions: read-out: %Ctrl @ 2000nM
[19] = molecular target: FGR (Homo sapiens, UniProt P09769); test: biochemical; conditions: read-out: %Ctrl @ 2000nM
[20] = molecular target: TLK1 (Homo sapiens, UniProt Q9UKI8); test: biochemical; conditions: read-out: %Ctrl @ 2000nM
Chain of TLK1 (Q9UKI8 whole entry): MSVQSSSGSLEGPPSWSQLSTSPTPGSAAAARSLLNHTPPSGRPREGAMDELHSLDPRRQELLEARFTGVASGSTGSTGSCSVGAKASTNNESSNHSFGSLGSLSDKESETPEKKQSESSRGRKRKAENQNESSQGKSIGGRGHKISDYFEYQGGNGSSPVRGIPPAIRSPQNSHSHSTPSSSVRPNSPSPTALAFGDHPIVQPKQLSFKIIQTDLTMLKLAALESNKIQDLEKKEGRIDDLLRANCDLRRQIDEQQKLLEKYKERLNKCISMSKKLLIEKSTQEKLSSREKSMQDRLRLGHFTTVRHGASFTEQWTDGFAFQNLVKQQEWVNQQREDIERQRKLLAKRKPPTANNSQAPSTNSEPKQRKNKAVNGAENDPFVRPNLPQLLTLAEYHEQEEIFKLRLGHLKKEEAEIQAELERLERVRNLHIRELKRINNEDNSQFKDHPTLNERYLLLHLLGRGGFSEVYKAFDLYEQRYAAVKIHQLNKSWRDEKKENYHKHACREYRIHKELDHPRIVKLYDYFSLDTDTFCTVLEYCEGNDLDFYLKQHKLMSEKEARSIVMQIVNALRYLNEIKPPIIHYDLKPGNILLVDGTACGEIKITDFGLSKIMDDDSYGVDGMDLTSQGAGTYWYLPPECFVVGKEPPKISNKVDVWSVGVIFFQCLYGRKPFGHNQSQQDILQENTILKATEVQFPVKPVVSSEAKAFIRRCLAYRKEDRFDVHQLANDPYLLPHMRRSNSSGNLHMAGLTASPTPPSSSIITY

[21] = molecular target: ULK3 (Homo sapiens, UniProt Q6PHR2); test: biochemical; conditions: read-out: %Ctrl @ 2000nM
[22] = molecular target: PIK3CA(M1043I) (Homo sapiens, UniProt P42336, M1043I); test: biochemical; conditions: read-out: %Ctrl @ 2000nM
[23] = molecular target: ZAK (Homo sapiens, UniProt Q9NYL2); test: biochemical; conditions: read-out: %Ctrl @ 2000nM
[24] = molecular target: PRKX (Homo sapiens, UniProt P51817); test: biochemical; conditions: read-out: %Ctrl @ 2000nM
[25] = molecular target: PKMYT1 (Homo sapiens, UniProt Q99640); test: biochemical; conditions: read-out: %Ctrl @ 2000nM
[26] = molecular target: RSK4(Kin.Dom.2-C-terminal) (Homo sapiens, UniProt Q9UK32); test: biochemical; conditions: read-out: %Ctrl @ 2000nM
[27] = molecular target: TNK2 (Homo sapiens, UniProt Q07912); test: biochemical; conditions: read-out: %Ctrl @ 2000nM
[28] = molecular target: JNK1 (Homo sapiens, UniProt P45983); test: biochemical; conditions: read-out: %Ctrl @ 2000nM
[29] = molecular target: PKAC-beta (Homo sapiens, UniProt P22694); test: biochemical; conditions: read-out: %Ctrl @ 2000nM
[30] = molecular target: CLK1 (Homo sapiens, UniProt P49759); test: biochemical; conditions: read-out: %Ctrl @ 2000nM
[31] = molecular target: PDGFRB (Homo sapiens, UniProt P09619); test: biochemical; conditions: read-out: %Ctrl @ 2000nM
[32] = system: A375 cells; conditions: 4 μM, 48 h
[33] = molecular target: DRAK2 (Homo sapiens, UniProt O94768); test: biochemical; conditions: read-out: %Ctrl @ 2000nM
[34] = molecular target: FLT3(D835H) (Homo sapiens, UniProt P36888, D835H); test: biochemical; conditions: read-out: %Ctrl @ 2000nM
[35] = molecular target: IKK-beta (Homo sapiens, UniProt O14920); test: biochemical; conditions: read-out: %Ctrl @ 2000nM
[36] = molecular target: HIPK1 (Homo sapiens, UniProt Q86Z02); test: biochemical; conditions: read-out: %Ctrl @ 2000nM
[37] = molecular target: MUSK (Homo sapiens, UniProt O15146); test: biochemical; conditions: read-out: %Ctrl @ 2000nM
[38] = molecular target: CDK2 (Homo sapiens, UniProt P24941); test: biochemical; conditions: read-out: %Ctrl @ 2000nM
[39] = molecular target: INSR (Homo sapiens, UniProt P06213); test: biochemical; conditions: read-out: %Ctrl @ 2000nM
Chain of INSR (P06213 28-1382): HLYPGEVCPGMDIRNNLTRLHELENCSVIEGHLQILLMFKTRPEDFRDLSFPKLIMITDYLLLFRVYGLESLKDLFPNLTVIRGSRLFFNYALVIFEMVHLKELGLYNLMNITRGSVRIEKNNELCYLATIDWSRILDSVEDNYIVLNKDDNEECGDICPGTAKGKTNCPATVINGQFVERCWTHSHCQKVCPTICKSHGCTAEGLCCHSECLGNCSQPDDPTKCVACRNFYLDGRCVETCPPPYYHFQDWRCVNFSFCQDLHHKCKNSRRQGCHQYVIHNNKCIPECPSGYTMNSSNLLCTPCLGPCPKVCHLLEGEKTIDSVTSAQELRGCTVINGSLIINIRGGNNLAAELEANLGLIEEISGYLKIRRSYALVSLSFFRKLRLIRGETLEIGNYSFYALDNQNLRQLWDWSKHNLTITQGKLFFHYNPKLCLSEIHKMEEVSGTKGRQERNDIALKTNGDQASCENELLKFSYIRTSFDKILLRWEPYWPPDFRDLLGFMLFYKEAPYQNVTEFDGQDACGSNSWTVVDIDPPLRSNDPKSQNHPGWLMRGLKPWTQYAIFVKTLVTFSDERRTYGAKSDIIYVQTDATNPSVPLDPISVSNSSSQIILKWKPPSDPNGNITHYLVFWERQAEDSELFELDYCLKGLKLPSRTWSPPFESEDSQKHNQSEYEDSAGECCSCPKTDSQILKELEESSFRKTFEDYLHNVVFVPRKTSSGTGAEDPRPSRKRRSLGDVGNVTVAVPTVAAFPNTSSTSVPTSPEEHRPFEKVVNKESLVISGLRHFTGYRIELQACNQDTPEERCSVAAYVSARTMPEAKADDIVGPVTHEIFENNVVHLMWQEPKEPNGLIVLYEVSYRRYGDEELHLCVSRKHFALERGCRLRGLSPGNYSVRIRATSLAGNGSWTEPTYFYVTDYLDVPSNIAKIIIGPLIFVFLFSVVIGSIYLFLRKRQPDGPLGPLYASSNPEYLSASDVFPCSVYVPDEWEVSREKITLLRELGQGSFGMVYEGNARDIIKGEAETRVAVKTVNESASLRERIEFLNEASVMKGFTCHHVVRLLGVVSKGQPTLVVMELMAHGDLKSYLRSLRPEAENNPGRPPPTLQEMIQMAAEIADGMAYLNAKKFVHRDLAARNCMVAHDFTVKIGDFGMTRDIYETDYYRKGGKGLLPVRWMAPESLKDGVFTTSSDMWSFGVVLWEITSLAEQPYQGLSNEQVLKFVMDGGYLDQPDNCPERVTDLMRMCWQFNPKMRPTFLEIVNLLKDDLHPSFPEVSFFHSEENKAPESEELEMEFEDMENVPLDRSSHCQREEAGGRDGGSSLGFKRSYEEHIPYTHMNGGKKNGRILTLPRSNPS

[40] = molecular target: AAK1 (Homo sapiens, UniProt Q2M2I8); test: biochemical; conditions: read-out: %Ctrl @ 2000nM
[41] = molecular target: JAK1(JH1domain-catalytic) (Homo sapiens, UniProt P23458); test: biochemical; conditions: read-out: %Ctrl @ 2000nM
[42] = molecular target: YANK2 (Homo sapiens, UniProt Q9NY57); test: biochemical; conditions: read-out: %Ctrl @ 2000nM
Chain of YANK2 (Q9NY57 whole entry): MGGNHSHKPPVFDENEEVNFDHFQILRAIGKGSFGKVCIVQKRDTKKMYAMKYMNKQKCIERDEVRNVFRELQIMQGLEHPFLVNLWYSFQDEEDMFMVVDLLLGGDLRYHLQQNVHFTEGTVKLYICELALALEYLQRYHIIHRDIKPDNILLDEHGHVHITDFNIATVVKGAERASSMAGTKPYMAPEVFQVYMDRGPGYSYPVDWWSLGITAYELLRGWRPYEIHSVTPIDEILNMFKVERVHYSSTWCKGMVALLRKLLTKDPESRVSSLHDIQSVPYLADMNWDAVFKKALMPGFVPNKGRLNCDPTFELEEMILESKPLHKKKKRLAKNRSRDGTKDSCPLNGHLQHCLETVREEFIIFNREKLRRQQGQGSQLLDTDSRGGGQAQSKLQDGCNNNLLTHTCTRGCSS

[43] = molecular target: CTK (Homo sapiens, UniProt P42679); test: biochemical; conditions: read-out: %Ctrl @ 2000nM

Structure (SMILES): CC(C)COC(=O)c1[nH]c2ccc(F)cc2c1-c1cn(CC2CCN(CCNS(=O)(=O)c3ccc(CC(C)C)cc3)CC2)nn1 [AB668, isobutyl 5-fluoro-3-(1-((1-(2-((4-isobutylphenyl)sulfonamido)ethyl)piperidin-4-yl)methyl)-1H-1,2,3-triazol-4-yl)-1H-indole-2-carboxylate]
- remaining activity at 2 µM [1]: 93%
- remaining activity at 2 µM [2]: 95%
- remaining activity at 2 µM [3]: 90%
- remaining activity at 2 µM [4]: 90%
- remaining activity at 2 µM [5]: 100%
- remaining activity at 2 µM [6]: 86%
- remaining activity at 2 µM [7]: 91%
- remaining activity at 2 µM [8]: 96%
- remaining activity at 2 µM [9]: 89%
- remaining activity at 2 µM [10]: 98%
- remaining activity at 2 µM [11]: 100%
- remaining activity at 2 µM [12]: 84%
- remaining activity at 2 µM [13]: 96%
- remaining activity at 2 µM [14]: 87%
- remaining activity at 2 µM [15]: 78%
- remaining activity at 2 µM [16]: 70%
- remaining activity at 2 µM [17]: 96%
- remaining activity at 2 µM [18]: 98%
- remaining activity at 2 µM [19]: 72%
- remaining activity at 2 µM [20]: 100%
- remaining activity at 2 µM [21]: 82%
- remaining activity at 2 µM [22]: 100%
- remaining activity at 2 µM [23]: 100%
- remaining activity at 2 µM [24]: 69%
- remaining activity at 2 µM [25]: 70%
- remaining activity at 2 µM [26]: 94%
- remaining activity at 2 µM [27]: 100%
- remaining activity at 2 µM [28]: 77%
- remaining activity at 2 µM [29]: 78%
- remaining activity at 2 µM [30]: 67%
- remaining activity at 2 µM [31]: 100%
- proliferation, cell death and apoptosis [32]: induced significant cell proliferation arrest associated with cell death and apoptosis
- remaining activity at 2 µM [33]: 100%
- remaining activity at 2 µM [34]: 89%
- remaining activity at 2 µM [35]: 91%
- remaining activity at 2 µM [36]: 100%
- remaining activity at 2 µM [37]: 92%
- remaining activity at 2 µM [38]: 90%
- remaining activity at 2 µM [39]: 97%
- remaining activity at 2 µM [40]: 80%
- remaining activity at 2 µM [41]: 75%
- remaining activity at 2 µM [42]: 76%
- remaining activity at 2 µM [43]: 82%
